Entries after “also recorded” stand apart in the source; their conditions may differ.
What was measured:
[1] = tested on: ZR-75-1 human ER+ breast tumors; experiment: ZR-75-1 ER+ breast tumors in athymic mice, with tamoxifen; format: in vivo, mouse; conditions: 7 weeks
Description: The mammary fat pads of athymic mice were injected with ZR-75-1 ER+ cells (1×10^6 cells), and tumor growth was measured every third day using a caliper.
Sections were incubated with an antibody to Ki67, a marker of proliferation.
The 4th inguinal mammary pads of athymic mice (female, 15-20 g, 5-6 weeks of age) were injected with 1×10^6 actively growing ZR-75-1 or MCF7 human ER+ breast cancer cells. […] Tumor size was measured twice a week in conscious animals, using a caliper, and tumor volume was calculated using the formula for a semi-ellipsoid (4/3πr^3)/2)]. […] After 7 weeks of treatment for the mice containing ZR-75-1 human ER+ breast tumors or 5 weeks of treatment for the mice containing MCF7 ER+ breast tumors, the mice were sacrificed and the tumors were removed and weighed.

[2] = tested on: MCF7 human ER+ breast tumors; experiment: MCF7 ER+ breast tumors in athymic mice, with tamoxifen; format: in vivo, mouse; conditions: 5 weeks
Description: The mammary fat pads of athymic mice were injected with MCF7 human ER+ cells (1×10^6 cells) and tumor growth was measured every third day using a caliper.
The 4th inguinal mammary pads of athymic mice (female, 15-20 g, 5-6 weeks of age) were injected with 1×10^6 actively growing ZR-75-1 or MCF7 human ER+ breast cancer cells. The mice were group housed in cages with HEPA-filtered air on 12-h light/dark cycles and were fed regular rat chow ad libitum. Tumor size was measured twice a week in conscious animals, using a caliper, and tumor volume was calculated using the formula for a semi-ellipsoid (4/3πr^3)/2)]. […] After 7 weeks of treatment for the mice containing ZR-75-1 human ER+ breast tumors or 5 weeks of treatment for the mice containing MCF7 ER+ breast tumors, the mice were sacrificed and the tumors were removed and weighed.

[3] = tested on: angiotensin II (Ang II)-induced hypertension; experiment: Ang II-induced hypertension and cardiac damage in rats; format: in vivo, rat; conditions: Ang II alone 24 μg/kg/h via osmotic mini-pump, at 4 weeks (from 120.4±2.4)
Description: The effect of p-MGE on hypertension and hypertension-induced cardiac damage was measured in rats with angiotensin II (Ang II)-induced hypertension. Sprague-Dawley rats (male, 8-12 weeks of age) were treated for 4 weeks with regular drinking water (Control), p-MGE alone (0.2 mg/mL of total phenolics in their drinking water), Ang II alone (24 μg/kg/h via implanted osmotic mini-pump) or p-MGE and Ang II. For a 250 g rat, this amount of p-MGE corresponds to approximately 20 mg phenolics/kg/day. Administration of p-MGE was initiated 1 week prior to treatment with Ang II. Blood pressure was recorded weekly by tail-cuff plethysmography, at the same time of day by the same individual. […] Scans to quantify cardiac parameters were taken in M mode parasternal short axis view at mid-papillary level, Tissue Doppler in 4 chamber view at the mitral annulus, and pulse wave Doppler in 4 chamber view to measure transmitral inflow. The ejection fraction of the heart and fractional shortening were measured in M mode parasternal short axis view at the mid-papillary level, using the VisualSonics Vevo 2100 High-Resolution Imaging System, as a measure of systolic function. […] Diastolic function was measured as e′, to assess the relaxation of the left ventricle, and E/e′, to assess the filling pressure of the left ventricle. […]

[4] = p-MGE 0.1 mg phenolics/mL drinking water, tamoxifen ~32 mg/kg/d in chow, or both
[5] = p-MGE 0.1 mg phenolics/mL, tamoxifen ~32 mg/kg/d, or both

Compound: CC/C(=C(\c1ccccc1)c1ccc(OCCN(C)C)cc1)c1ccccc1 [tamoxifen]
- tumor volume / growth [1, 4]: reduced the growth of both ER+ tumors; also recorded: also reduced tumor size
- Ki67 positive cells in tumor sections [1, 5]: associated with a reduction in the number of cells which were positive for the proliferation marker Ki67; also recorded: also significantly reduced proliferation
- tumor weight [1, 5]: also reduced tumor weight
- tumor volume / growth [2, 4]: reduced the growth of both ER+ tumors; also recorded: also reduced tumor size
- tumor weight [2, 5]: also reduced tumor weight

Compound: angiotensin II (DRVYIHPF; Angiotensin-2; UniProt P01015 25-32, looked up) [Ang II, used to induce hypertension in rats]
- systolic blood pressure (tail cuff) [3]: 213.1±6.8 mm Hg

— US11576944B2, “Grape extracts and methods relating thereto” (priority 2016, dated 2023)
